target: PD-L1 His protein / PD-1 Fc protein (Homo sapiens (Human), UniProt Q9NZQ7); test: HTRF assay (PD-1/PD-L1 interaction); type: binding; details: PD-L1 His 6 nM, PD-1 Fc 6 nM; inhibitors diluted 3-fold from 20 μM
Protocol: PD-L1 His protein was prepared and added at the final concentration of 6 nM in the White opaque 384 well plate (Corning cat #3824BC). PD-L1 small molecule inhibitors were diluted by 3-fold starting from 20 μM and a final concentration of 0.001 μM and added to the well. PD-1 Fc protein was added at the final concentration of 6 nM. PD-L1 His protein, PD-L1 small molecule inhibitors, and PD1 Fc proteins were added to the well in this order, with each 5 μl volume, and were incubated for 15 minutes at room temperature. PAb anti-Human IgG-XL665 (Cisbio, cat #61HFCXLA) and Mab anti-6HIS Tb cryptate Gold (Cisbio, cat #61HI2TLA) were mixed at 6.7 nM and 0.35 nM respectively, and total 5 μl volume of mixture was added to the well and incubated at room temperature for 1 hour. The plate was read using PerkinElmer Envision plate reader and data was analyzed by Prism 6 software.

Chain of PD-L1 His protein / PD-1 Fc protein (Q9NZQ7 19-238): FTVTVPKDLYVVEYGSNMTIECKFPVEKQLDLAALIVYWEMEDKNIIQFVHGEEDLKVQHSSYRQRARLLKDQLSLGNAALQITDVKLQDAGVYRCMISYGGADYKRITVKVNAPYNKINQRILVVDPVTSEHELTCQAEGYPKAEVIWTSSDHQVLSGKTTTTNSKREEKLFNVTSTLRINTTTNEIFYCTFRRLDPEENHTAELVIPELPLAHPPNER

| SMILES | IC50 [nM] |
| --- | --- |
| CC(=O)NCCN[C@@H]1c2ccc(OCc3cccc(-c4ccc5c(c4)OCCO5)c3C)cc2C[C@@H]1O [Compound 10B_1, N-(2-(((1R,2S)-5-((3-(2,3-dihydrobenzo[b][1,4]dioxin-6-yl)-2-methylbenzyl)oxy)-2-hydroxy-2,3-dihydro-1H-inden-1-yl)amino)ethyl)acetamide] | 3140 |
| CC(=O)NCCN[C@H]1c2ccc(OCc3cccc(-c4ccccc4)c3C)cc2C[C@@H]1O [Compound 10A_2_2, N-(2-(((1S,2S)-2-hydroxy-5-((2-methyl-[1,1′-biphenyl]-3-yl)methoxy)-2,3-dihydro-1H-inden-1-yl)amino)ethyl)acetamide] | 170 |
| CC(=O)NCCN[C@@H]1c2ccc(OCc3cccc(-c4ccccc4)c3C)cc2C[C@H]1O [Compound 10A_2_1, N-(2-(((1R,2R)-2-hydroxy-5-((2-methyl-[1,1′-biphenyl]-3-yl)methoxy)-2,3-dihydro-1H-inden-1-yl)amino)ethyl)acetamide] | 5000 |
| Cc1c(COc2ccc3c(c2)C[C@H](O)[C@H]3NCCN2CCOCC2)cccc1-c1ccccc1 [Compound 10E_2, (1S,2S)-5-((2-methyl-[1,1′-biphenyl]-3-yl)methoxy)-1-((2-morpholinoethyl)amino)-2,3-dihydro-1H-inden-2-ol] | 1080 |
| Cc1c(COc2ccc3c(c2)C[C@H](O)[C@H]3NCCS(C)(=O)=O)cccc1-c1ccccc1 [Compound 10C_2, (1S,2S)-5-((2-methyl-[1,1′-biphenyl]-3-yl)methoxy)-1-((2-(methylsulfonyl)ethyl)amino)-2,3-dihydro-1H-inden-2-ol] | > 20000 |
| CC(=O)NCCNC1CCc2cc(OCc3cccc(-c4ccc5c(c4)OCCO5)c3C)ccc21 (stereo not drawn) [Compound 16D, N-(2-((5-((3-(2,3-dihydrobenzo[b][1,4]dioxin-6-yl)-2-methylbenzyl)oxy)-2,3-dihydro-1H-inden-1-yl)amino)ethyl)acetamide] | 323 |
| CC(=O)NCCNC1COc2cc(OCc3cccc(-c4ccc5c(c4)OCCO5)c3C)ccc21 (stereo not drawn) [Compound 16B, N-(2-((6-((3-(2,3-dihydrobenzo[b][1,4]dioxin-6-yl)-2-methylbenzyl)oxy)-2,3-dihydrobenzofuran-3-yl)amino)ethyl)acetamide] | 3800 |
| CC(=O)NCCN[C@@H]1c2ccc(OCc3cccc(-c4ccccc4)c3C)cc2C[C@@H]1O [Compound 10A_l_2, N-(2-(((1R,2S)-2-hydroxy-5-((2-methyl-[1,1′-biphenyl]-3-yl)methoxy)-2,3-dihydro-1H-inden-1-yl)amino)ethyl)acetamide] | 5090 |
| CC(=O)NCCN[C@H]1c2ccc(OCc3cccc(-c4ccccc4)c3C)cc2C[C@H]1O [Compound 10A_l_1, N-(2-(((1S,2R)-2-hydroxy-5-((2-methyl-[1,1′-biphenyl]-3-yl)methoxy)-2,3-dihydro-1H-inden-1-yl)amino)ethyl)acetamide] | 863 |
| Cc1c(COc2ccc3c(c2)C[C@H](O)[C@@H]3NCCO)cccc1-c1ccccc1 [Compound 10F_1, (1R,2S)-1-((2-hydroxyethyl)amino)-5-((2-methyl-[1,1′-biphenyl]-3-yl)methoxy)-2,3-dihydro-1H-inden-2-ol] | 1320 |
| CC(=O)NCCN[C@H]1c2ccc(OCc3cccc(-c4ccccc4)c3C)cc2C[C@@H]1O [Compound 10A_2, N-(2-(((1S,2S)-2-hydroxy-5-((2-methyl-[1,1′-biphenyl]-3-yl)methoxy)-2,3-dihydro-1H-inden-1-yl)amino)ethyl)acetamide] | 204 |
| Cc1c(COc2ccc3c(c2)C[C@H](O)[C@H]3NCCO)cccc1-c1ccccc1 [Compound 10F_2, (1S,2S)-1-((2-hydroxyethyl)amino)-5-((2-methyl-[1,1′-biphenyl]-3-yl)methoxy)-2,3-dihydro-1H-inden-2-ol] | 1170 |
| Cc1c(COc2ccc3c(c2)C[C@H](O)C3NCCN2CCN(C)CC2)cccc1-c1ccccc1 (stereo partly drawn) [Compound 10D, (2S)-5-((2-methyl-[1,1′-biphenyl]-3-yl)methoxy)-1-((2-(4-methylpiperazin-1-yl)ethyl)amino)-2,3-dihydro-1H-inden-2-ol] | 5150 |
| CC(=O)NCCNC1CCc2cc(OCc3cccc(-c4ccccc4)c3C)ccc21 (stereo not drawn) [Compound 16C, N-(2-((5-((2-methyl-[1,1′-biphenyl]-3-yl)methoxy)-2,3-dihydro-1H-inden-1-yl)amino)ethyl)acetamide] | 379 |
| CC(=O)NCCN[C@@H]1c2ccc(OCc3cccc(-c4ccccc4)c3C)cc2C[C@@H]1O [Compound 10A_l, N-(2-(((1R,2S)-2-hydroxy-5-((2-methyl-[1,1′-biphenyl]-3-yl)methoxy)-2,3-dihydro-1H-inden-1-yl)amino)ethyl)acetamide] | 1080 |
| Cc1c(COc2ccc3c(c2)C[C@H](O)[C@@H]3NCCS(C)(=O)=O)cccc1-c1ccccc1 [Compound 10C_l, (1R,2S)-5-((2-methyl-[1,1′-biphenyl]-3-yl)methoxy)-1-((2-(methylsulfonyl)ethyl)amino)-2,3-dihydro-1H-inden-2-ol] | > 20000 |
| CC(=O)NCCNC1COc2cc(OCc3cccc(-c4ccccc4)c3C)ccc21 (stereo not drawn) [Compound 16A, N-(2-((6-((2-methyl-[1,1′-biphenyl]-3-yl)methoxy)-2,3-dihydrobenzofuran-3-yl)amino)ethyl)acetamide] | 3600 |
| Cc1c(COc2ccc3c(c2)C[C@H](O)[C@@H]3NCCN2CCOCC2)cccc1-c1ccccc1 [Compound 10E_1, (1R,2S)-5-((2-methyl-[1,1′-biphenyl]-3-yl)methoxy)-1-((2-morpholinoethyl)amino)-2,3-dihydro-1H-inden-2-ol] | 7780 |
